In patent US12213482B2, “Fungicide enhancers effective for treating plants infected with fungal pathogens” (Board of Regents, The University of Texas System, priority 2015, dated 2025):

Key:
Assay type in all cases: cell-based
[1] = tested on: Fusarium oxysporum f.sp Cubense; assay: Antifungal susceptibility disk test, fungicide disk plus apyrase inhibitor in plate; settings: inhibitor 65 μM, 30° C., 12 days; for inhibitory effect on the growth of F. oxysporum compared to copper octanoate alone: combined with copper octanoate (285 mM) disk, FIG. 4A
Protocol: Copper Octanoate, 4B. Propiconazole, and 4C. Myclobutanil against the pathogenic fungi Fusarium oxysporum. […] The equivalent volume of dimethylsulphoxide (DMSO) was added as a control. The studies were repeated two times with similar results. Error bars indicate standard deviations (n=5). The significances of the potency of fungicides are indicated: *** (Student's t-test, P<0.001); **(Student's t-test, P<0.01) or *(Student's t-test, P<0.05). The plant pathogenic fungal strains Botrytis cinerea, Colletotrichum graminicola, Fusarium oxysporum, Sclerotiana sclerotiorum and Verticillium dahliae were obtained from the Institute for Plant Genomics & Biotechnology, Texas A & M University, USA Potato dextrose agar (PDA, Sigma-Aldrich) was routinely used for the growth of different pathogenic fungal strain. Ectophosphatase inhibitors NGXT191 (AI.1), AI.10, NGXT1913 (AI.13), and AI. 15 were used dal this study. The fungicides copper octanoate (C16H30CuO4), myclobutanil (C15H17ClN4) and propiconazole (C15H17Cl2N3O2) were used. The concentrations of these compounds used were copper octanoate (285 mM), myclobutanil (53.6 mM) and propiconazole (418 mM). Standard antifungal susceptibility disk tests were performed to determine any potentiating effect of ectophosphatase inhibitors on the growth of pathogenic fungus. The pathogenic fungus wild-type strains were plated on PDA medium with paper-disks containing, fungicides at the center of the plate. […] Plates were incubated at 30° C. for 7-days (C. graminicola and S. sclerotiorum) or 12-days (B. cinerea, F. oxysporum and V. dahliae), depending on the growth rate of the fungi. Plates were photographed, and the zone of fungal growth inhibition was measured by using IMAGE J™ software (NIH, USA). All the tests were performed with 5 replicates. The studies were performed two times. Results were analyzed for significance using Student T-tests.

Sclerotiana sclerotiorum = assay: as above; settings: inhibitor 65 μM, 30° C., 7 days; for inhibitory effect on the growth of Sclerotiana sclerotiorum compared to copper octanoate alone: combined with copper octanoate (285 mM) disk, FIG. 5A; for inhibitory effect on growth of Sclerotiana sclerotiorum compared to myclobutanil alone: combined with myclobutanil (53.6 mM) disk, FIG. 5B; for inhibitory effect on the growth of Sclerotiana sclerotiorum compared to propiconazole alone: combined with propiconazole (418 mM) disk, FIG. 5C
Protocol: The equivalent volume of dimethylsulphoxide (DMSO) was added as a control. The studies were repeated two times with similar results. Error bars indicate standard deviations (n=5). The significances of the potency of fungicides are indicated: *** (Student's t-test, P<0.001); **(Student's t-test, P<0.01) or *(Student's t-test, P<0.05). The plant pathogenic fungal strains Botrytis cinerea, Colletotrichum graminicola, Fusarium oxysporum, Sclerotiana sclerotiorum and Verticillium dahliae were obtained from the Institute for Plant Genomics & Biotechnology, Texas A & M University, USA Potato dextrose agar (PDA, Sigma-Aldrich) was routinely used for the growth of different pathogenic fungal strain. Ectophosphatase inhibitors NGXT191 (AI.1), AI.10, NGXT1913 (AI.13), and AI. 15 were used dal this study. The fungicides copper octanoate (C16H30CuO4), myclobutanil (C15H17ClN4) and propiconazole (C15H17Cl2N3O2) were used. The concentrations of these compounds used were copper octanoate (285 mM), myclobutanil (53.6 mM) and propiconazole (418 mM). Standard antifungal susceptibility disk tests were performed to determine any potentiating effect of ectophosphatase inhibitors on the growth of pathogenic fungus. The pathogenic fungus wild-type strains were plated on PDA medium with paper-disks containing, fungicides at the center of the plate. […] Plates were incubated at 30° C. for 7-days (C. graminicola and S. sclerotiorum) or 12-days (B. cinerea, F. oxysporum and V. dahliae), depending on the growth rate of the fungi. Plates were photographed, and the zone of fungal growth inhibition was measured by using IMAGE J™ software (NIH, USA). All the tests were performed with 5 replicates. The studies were performed two times. Results were analyzed for significance using Student T-tests.

plant pathogenic fungi = assay: Fungal plate assays, apyrase inhibitors tested alone; settings: apyrase inhibitor alone, no fungicide
Protocol: Standard antifungal susceptibility disk tests were performed to determine any potentiating effect of ectophosphatase inhibitors on the growth of pathogenic fungus. The pathogenic fungus wild-type strains were plated on PDA medium with paper-disks containing, fungicides at the center of the plate. […] Plates were incubated at 30° C. for 7-days (C. graminicola and S. sclerotiorum) or 12-days (B. cinerea, F. oxysporum and V. dahliae), depending on the growth rate of the fungi. Plates were photographed, and the zone of fungal growth inhibition was measured by using IMAGE J™ software (NIH, USA). All the tests were performed with 5 replicates. The studies were performed two times. Results were analyzed for significance using Student T-tests.

Structure (SMILES) | inhibitory effect on the growth of F. oxysporum compared to copper octanoate alone [1] | inhibitory effect on the growth of Sclerotiana sclerotiorum compared to copper octanoate alone (Sclerotiana sclerotiorum) | inhibitory effect on growth of Sclerotiana sclerotiorum compared to myclobutanil alone (Sclerotiana sclerotiorum) | inhibitory effect on the growth of Sclerotiana sclerotiorum compared to propiconazole alone (Sclerotiana sclerotiorum) | fungicidal activity when tested alone (plant pathogenic fungi) | inhibitory effect on the growth of F. oxysporum compared to myclobutanil alone ([1]; combined with myclobutanil (53.6 mM) disk, FIG. 4B) | inhibitory effect on the growth of F. oxysporum compared to propiconazole alone ([1]; combined with propiconazole (418 mM) disk, FIG. 4C)
Cc1cccc(NS(=O)(=O)c2ccc(-c3ccccc3)cc2)c1 [AI.1, N-(m-tolyl)-[1,1′-biphenyl]-4-sulfonamide] | significantly greater inhibitory effect | significantly greater inhibitory effect | significantly greater inhibitory effect | significantly greater inhibitory effect | no fungicidal activity was detected |  | 
O=C(Nc1cccc([N+](=O)[O-])c1)c1cccc(S(=O)(=O)Nc2ccc(Br)cc2)c1 [AI.13, 3-(N-(4-bromophenyl)sulfamoyl)-N-(3-nitrophenyl)benzamide] | significantly greater inhibitory effect | significantly greater inhibitory effect | significantly greater inhibitory effect | significantly greater inhibitory effect | no fungicidal activity was detected |  | 
CCCCCCCSC(=O)c1cc2ccccc2oc1=O [AI.10, S-heptyl 2-oxo-2H-chromene-3-carbothioate] |  | significantly greater inhibitory effect | significantly greater inhibitory effect | significantly greater inhibitory effect | no fungicidal activity was detected | significantly greater inhibitory effect | significantly greater inhibitory effect
C/C(=N\NC(=O)c1cccc(C)c1)c1ccc2ccccc2c1 [AI.15, (E)-3-methyl-N′-(1-(naphthalen-2-yl)ethylidene)benzohydrazide] |  | significantly greater inhibitory effect | significantly greater inhibitory effect | significantly greater inhibitory effect | no fungicidal activity was detected |  | 
